Test results reported in PubChem BioAssay AID248 (DTP/NCI, 2004).
Where “and” joins values, the source holds several entries; their conditions need not be identical. Equal entries are not always repeated. Toxic doses and inconclusive results are not listed. Cut-off read from the data, not from the text of the source: active = T/C of 150% or more; inactive = T/C below 125%.

Tested on: L1210 leukemia ip in BDF1 mice, survival T/C
Assay: NCI In Vivo Anticancer Drug Screen. Data for tumor model L1210 Leukemia (intraperitoneal) in B6D2F1 (BDF1) mice
Details: endpoint: mean survival time, higher = longer survival
Summary of the method: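 Mice bearing the transplanted tumor received compound or vehicle. Survival of the treated group was divided by that of the vehicle-treated control group to give the ratio.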

[1] = dose: 100.0 mg/kg/injection, schedule: Q04DX003 (ip), vehicle: saline with Tween-80
[2] = dose: 200.0 mg/kg/injection, schedule: Q04DX003 (ip), vehicle: saline with Tween-80
[3] = dose: 400.0 mg/kg/injection, schedule: Q04DX003 (ip), vehicle: saline with Tween-80
[4] = dose: 100.0 mg/kg/injection, schedule: Q04DX003 (ip), vehicle: Klucel (hydroxypropylcellulose) (HPC)
[5] = dose: 200.0 mg/kg/injection, schedule: Q04DX003 (ip), vehicle: Klucel (hydroxypropylcellulose) (HPC)
[6] = dose: 100.0 mg/kg/injection, schedule: Q01DX009 (ip), vehicle: Klucel (hydroxypropylcellulose) (HPC)
[7] = dose: 200.0 mg/kg/injection, schedule: Q01DX009 (ip), vehicle: Klucel (hydroxypropylcellulose) (HPC)

Measured: T/C

CC(=O)CCCC(C)C1CCC2C3CC=C4CC(O)CCC4(C)C3CCC12C (configuration not stated)
inactive: dose: 75.0 mg/kg/injection, schedule: Q01DX009 (sc), vehicle: steriod suspending solution 99 % of control | dose: 100.0 mg/kg/injection, schedule: Q01DX001 (sc), vehicle: steriod suspending solution 105 % of control | dose: 150.0 mg/kg/injection, schedule: Q01DX009 (sc), vehicle: steriod suspending solution 94 % of control | dose: 200.0 mg/kg/injection, schedule: Q01DX001 (sc), vehicle: steriod suspending solution 101 % of control | dose: 300.0 mg/kg/injection, schedule: Q01DX009 (sc), vehicle: steriod suspending solution 92 % of control | dose: 400.0 mg/kg/injection, schedule: Q01DX001 (sc), vehicle: steriod suspending solution 101 % of control

Cc1cccc(NC(=S)NC(=O)c2cccc([N+](=O)[O-])c2)c1C
inactive: dose: 100.0 mg/kg/injection, schedule: Q01DX009 (ip), vehicle: saline with Tween-80 104 % of control and 118 % of control | dose: 100.0 mg/kg/injection, schedule: Q04DX002 (ip), vehicle: saline with Tween-80 88 % of control | [1] 99 % of control | dose: 200.0 mg/kg/injection, schedule: Q01DX009 (ip), vehicle: saline with Tween-80 103 % of control and 104 % of control | dose: 200.0 mg/kg/injection, schedule: Q04DX002 (ip), vehicle: saline with Tween-80 102 % of control | [2] 101 % of control | dose: 400.0 mg/kg/injection, schedule: Q01DX009 (ip), vehicle: saline with Tween-80 104 % of control | dose: 400.0 mg/kg/injection, schedule: Q04DX002 (ip), vehicle: saline with Tween-80 98 % of control | [3] 100 % of control

O=C(Nc1ccc2c(O)cc(S(=O)(=O)O)cc2c1)Nc1ccc2c(O)cc(S(=O)(=O)O)cc2c1
inactive: dose: 100.0 mg/kg/injection, schedule: Q04DX003 (ip), vehicle: saline 96 % of control | dose: 200.0 mg/kg/injection, schedule: Q04DX003 (ip), vehicle: saline 108 % of control | dose: 400.0 mg/kg/injection, schedule: Q04DX003 (ip), vehicle: saline 108 % of control

CS(=O)(=O)OC[C@@H](O)[C@@H](O)COS(C)(=O)=O
inactive: dose: 100.0 mg/kg/injection, schedule: Q01DX009 (ip), vehicle: saline sonified 101 % of control | dose: 200.0 mg/kg/injection, schedule: Q01DX009 (ip), vehicle: saline sonified 98 % of control | dose: 400.0 mg/kg/injection, schedule: Q01DX009 (ip), vehicle: saline sonified 103 % of control

O=[N+]([O-])c1ccc(C=Nc2cccc3ncccc23)s1
inactive: [4] 95 % of control | [5] 93 % of control

Clc1ccc(Oc2nc3c(Cl)cccc3s2)cc1Cl
inactive: dose: 100.0 mg/kg/injection, schedule: Q04DX002 (ip), vehicle: Klucel (hydroxypropylcellulose) (HPC) 101 % of control | dose: 200.0 mg/kg/injection, schedule: Q04DX002 (ip), vehicle: Klucel (hydroxypropylcellulose) (HPC) 101 % of control | dose: 400.0 mg/kg/injection, schedule: Q04DX002 (ip), vehicle: Klucel (hydroxypropylcellulose) (HPC) 97 % of control

Cc1cc2nc(NC(=O)C3CC3)sc2cc1C
inactive: [6] 91 % of control | [7] 91 % of control

O=[N+]([O-])c1ccc(NC(CO)C(O)C(O)C(O)CO)c([N+](=O)[O-])c1 (configuration not stated)
inactive: dose: 100.0 mg/kg/injection, schedule: Q01DX001 (ip), vehicle: saline 102 % of control | dose: 200.0 mg/kg/injection, schedule: Q01DX001 (ip), vehicle: saline 98 % of control | dose: 400.0 mg/kg/injection, schedule: Q01DX001 (ip), vehicle: saline 98 % of control

CCN(CC)CCNc1ccc(CO)c(Cl)c1
inactive: dose: 31.25 mg/kg/injection, schedule: Q01DX009 (ip), vehicle: Klucel (hydroxypropylcellulose) (HPC) 92 % of control | dose: 62.5 mg/kg/injection, schedule: Q01DX009 (ip), vehicle: Klucel (hydroxypropylcellulose) (HPC) 89 % of control | dose: 125.0 mg/kg/injection, schedule: Q01DX009 (ip), vehicle: Klucel (hydroxypropylcellulose) (HPC) 106 % of control

CC1(C)CC(=O)CCS1
inactive: [6] 102 % of control | [4] 105 % of control | [7] 96 % of control | [5] 98 % of control | dose: 400.0 mg/kg/injection, schedule: Q01DX009 (ip), vehicle: Klucel (hydroxypropylcellulose) (HPC) 104 % of control | dose: 400.0 mg/kg/injection, schedule: Q04DX003 (ip), vehicle: Klucel (hydroxypropylcellulose) (HPC) 100 % of control

CCCN=C(N)N=C(N)N
inactive: dose: 50.0 mg/kg/injection, schedule: Q01DX009 (ip), vehicle: water 108 % of control | dose: 100.0 mg/kg/injection, schedule: Q01DX001 (ip), vehicle: water 102 % of control | dose: 100.0 mg/kg/injection, schedule: Q01DX009 (ip), vehicle: water 95 % of control | dose: 100.0 mg/kg/injection, schedule: Q04DX003 (ip), vehicle: water 104 % of control | dose: 200.0 mg/kg/injection, schedule: Q01DX001 (ip), vehicle: water 102 % of control | dose: 200.0 mg/kg/injection, schedule: Q04DX003 (ip), vehicle: water 102 % of control | dose: 400.0 mg/kg/injection, schedule: Q01DX001 (ip), vehicle: water 102 % of control

CC(=O)[C@H]1CC[C@H]2[C@@H]3C[C@H](F)C4=CC(=O)CC[C@]4(C)[C@@]3(F)[C@@H](O)C[C@]12C
inactive: dose: 50.0 mg/kg/injection, schedule: Q01DX009 (sc), vehicle: steriod suspending solution 124 % of control | dose: 100.0 mg/kg/injection, schedule: Q01DX009 (sc), vehicle: steriod suspending solution 101 % of control | dose: 100.0 mg/kg/injection, schedule: Q04DX003 (sc), vehicle: steriod suspending solution 97 % of control | dose: 200.0 mg/kg/injection, schedule: Q01DX009 (sc), vehicle: steriod suspending solution 104 % of control | dose: 200.0 mg/kg/injection, schedule: Q04DX003 (sc), vehicle: steriod suspending solution 105 % of control | dose: 400.0 mg/kg/injection, schedule: Q04DX003 (sc), vehicle: steriod suspending solution 103 % of control

C[N+](C)(CC(=O)Nc1cccc(C(F)(F)F)c1)CC(=O)Nc1cccc(C(F)(F)F)c1
inactive: dose: 12.5 mg/kg/injection, schedule: Q01DX009 (ip), vehicle: saline with Tween-80 88 % of control | dose: 25.0 mg/kg/injection, schedule: Q01DX009 (ip), vehicle: saline with Tween-80 94 % of control | dose: 50.0 mg/kg/injection, schedule: Q01DX009 (ip), vehicle: saline with Tween-80 113 % of control

CC1(C)CC(OP(=O)(CCl)OC2CC(C)(C)N(O)C(C)(C)C2)CC(C)(C)N1O
inactive: dose: 100.0 mg/kg/injection, schedule: Q04DX002 (ip), vehicle: water 97 % of control | dose: 200.0 mg/kg/injection, schedule: Q04DX002 (ip), vehicle: water 97 % of control

COc1cc(C=C(C#N)C#N)cc(OC)c1OC
inactive: dose: 25.0 mg/kg/injection, schedule: Q04DX002 (ip), vehicle: gum acacia 100 % of control | dose: 50.0 mg/kg/injection, schedule: Q04DX002 (ip), vehicle: gum acacia 110 % of control | dose: 100.0 mg/kg/injection, schedule: Q04DX002 (ip), vehicle: gum acacia 122 % of control and 91 % of control

CC[N+](C)(CC)c1ccc(/C=N\N(C)C)cc1
inactive: dose: 6.25 mg/kg/injection, schedule: Q01DX009 (ip), vehicle: Klucel (hydroxypropylcellulose) (HPC) 96 % of control | dose: 12.5 mg/kg/injection, schedule: Q01DX009 (ip), vehicle: Klucel (hydroxypropylcellulose) (HPC) 108 % of control | dose: 25.0 mg/kg/injection, schedule: Q01DX009 (ip), vehicle: Klucel (hydroxypropylcellulose) (HPC) 86 % of control

OC/C(=C\c1ccccc1)c1ccccc1
inactive: [1] 92 % of control | [2] 94 % of control | [3] 92 % of control
